# Assay results published in patent US20260345582A1, “PRODRUG FOR ANTI-AGING RELATED DISEASES AND USE METHOD THEREOF” (Beijing SunCell Bio-Medical Co., Ltd., priority 2022, published 2026).
# What was measured:
# [1] = system: MRC5 cells (human embryonic lung fibroblast cell line); assay: in vitro killing of induced senescent MRC5 cells (CCK-8); assay type: cell-based; conditions: lung-derived, FIG. 3G
# From the text: (§1) Induction of the Cellular Senescence
# [2] = system: HUVEC cells (human umbilical vein endothelial cell line); assay: in vitro killing of induced senescent HUVEC cells (CCK-8); assay type: cell-based; conditions: vascular endothelial-derived, FIG. 3F
# From the text: as §1
# [3] = system: mouse model of oxygen-induced retinopathy; assay: oxygen-induced retinopathy, retinal microvessel staining analysis; assay type: in vivo, C57BL6/J mice; conditions: single intravitreal injection
# Experimental: A. Modelling of a mouse model of oxygen-induced retinopathy, and the schematic diagram of treatment. C57BL6/J mice were cultured in 75% hyperoxia for 5 consecutive days starting from postnatal day 7, and treated by a single intravitreal administration of the drug on postnatal day 12, and then transferred to normal air atmosphere until day 17 for retinal sampling and analysis. P0, P7, P12, and P17 in the panel represent mice on postnatal days 0, 7, 12, and 17, respectively.
# B. Representative diagram of the reduction of pathological avascular areas in the mouse retina after the treatment by intravitreal injection of A13bGa1. Mouse retinal microvessels were labelled by IB4 staining for the central avascular area analysis, wherein the green fluorescence represents the IB4-labelled microvascular areas, and the avascular areas are circled with white markers in the panel.
# C. Statistical results of the retina pathological avascular areas after treatment of different groups of mice. […] The statistics in the panel are the quantitative results of the ischemic areas in the retinas of each sample compared with that of the VEH control group after the areas were taken as the means, and the error bar is a standard deviation. […]
# [4] = system: platelets in peripheral blood; assay: in vivo platelet toxicity test, single intraperitoneal injection; design: species or system C57 mice; conditions: FIG. 4A
# From the text: A. Results of the platelet counts in peripheral blood on days 1, 3, 5, 8, and 10 after a single intraperitoneal injection of different doses of the given drug. Each dot in the panel represents the count of platelets detected in 1 mouse at that time point (n=4 mice); A13 represents the parent compound A1331852 administration group, and A13bGa1 represents the prodrug obtained after the β-gal modification of A13, and mpk represents the milligram dose per kilogram of the body weight. There were three different dose groups of 2, 5, and 20 mg/kg for both A13 and A13bGa1 administration. The dashed line in the panel indicates the mean value of the platelet counts of the mice in the control single vehicle administration group.
# In Vivo Platelet Toxicity Test
# A single administration of A13 or A13bG was performed. Female 5-6 week old C57 mice were treated with a single intraperitoneal injection. A13 and A13bG were administered in three different dose groups of 2, 5, and 20 mg/kg. Approximately 50 μl of blood was collected from each mouse at different time points into the EDTA tubes (RAM Scientific) by means of inner canthal blood extraction, and analyzed using a haematology analyzer for a blood routine examination and a platelet counting. Multiple administrations of A13 or A13bG were performed. Female 5-6 week old C57 mice were treated with multiple intraperitoneal injections. A13 and A13bG were administered in three different dose groups of 2, 5 and 20 mg/kg, three consecutive days per week, followed by a 4-day withdrawal for 3 weeks. […]
# For a blood routine examination, 50 μl of fresh blood was collected from each mouse and immediately mixed with EDTA. Blood samples were analyzed by Celltac Alpha MEK-6400 series haematology analyzer (Nihon Kohden, MEK-6400). Data were expressed as the number of different blood cells or platelets per μl of blood. […] A 200 μl of serum was aliquoted and analyzed for alanine aminotransferase (ALT), aspartate aminotransferase (AST), uric acid (UA), and creatinine (CREA) by a chemistry analyzer (Mindray, BS-350E).
# [5] = single intraperitoneal administration, 2, 5, 20 mg/kg
compound,measurement,setting,value
Cc1c(-c2ccc(N3CCc4cccc(C(=O)Nc5nc6ccccc6s5)c4C3)nc2C(=O)OCc2ccc(O[C@@H]3O[C@H](CO)[C@H](O)[C@H](O)[C@H]3O)c([N+](=O)[O-])c2)cnn1CC12CC3CC(CC(C3)C1)C2 [Compound A13bGa1],"killing of the senescent cells, efficiency and selectivity",[1],highly efficient and selective in killing the senescent cells
same,"killing of the senescent cells, efficiency and selectivity",[2],highly efficient and selective in killing the senescent cells
same,retinal oxygen-induced microangiopathy,[3],effectively improve the retinal oxygen-induced microangiopathy
same,area of the abnormal neovascular area in the retinas,"[3]; 50 ng and 100 ng, FIGS. 6D and 6E",significantly reduced
same,platelet toxicity compared with the parent compound A13,[4]; [5],significantly less toxic to the platelets than the parent compound A13
same,platelet-destroying effect,[4]; [5],strong platelet-destroying effect only at the higher dose of 20 mg/kg
same,effect on the magnitude of the platelet changes in peripheral blood compared with A13,[4]; single intraperitoneal administration,significantly less than that of A13
